In ChEMBL document CHEMBL1828583, “Discovery process and pharmacological characterization of a novel dual orexin 1 and orexin 2 receptor antagonist useful for treatment of sleep disorders” (Bioorg Med Chem Lett, 2011):

Tests used:
[1] = target: T1, Orexin/Hypocretin receptor type 1 (Homo sapiens, UniProt O43613); assay: Antagonist activity at recombinant human OX1R expressed in CHO cells by FLIPR calcium based functional assay; type: cell-based
T1 sequence (O43613 whole entry): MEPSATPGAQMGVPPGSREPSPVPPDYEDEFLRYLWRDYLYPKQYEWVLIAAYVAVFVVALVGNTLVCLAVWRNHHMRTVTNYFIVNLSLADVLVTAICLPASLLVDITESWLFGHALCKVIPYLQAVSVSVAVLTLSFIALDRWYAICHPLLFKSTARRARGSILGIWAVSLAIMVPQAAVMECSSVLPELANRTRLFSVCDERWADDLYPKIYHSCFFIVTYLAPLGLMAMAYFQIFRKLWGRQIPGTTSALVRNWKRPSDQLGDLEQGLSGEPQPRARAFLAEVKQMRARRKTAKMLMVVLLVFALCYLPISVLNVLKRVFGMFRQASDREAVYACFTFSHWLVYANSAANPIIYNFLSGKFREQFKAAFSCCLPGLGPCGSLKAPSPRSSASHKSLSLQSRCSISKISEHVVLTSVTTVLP

Orexin receptor type 2 = target: T2, Orexin receptor type 2 (Homo sapiens, UniProt O43614); assay: Antagonist activity at recombinant human OX2R expressed in CHO cells by FLIPR calcium based functional assay; type: cell-based
T2 sequence (O43614 whole entry): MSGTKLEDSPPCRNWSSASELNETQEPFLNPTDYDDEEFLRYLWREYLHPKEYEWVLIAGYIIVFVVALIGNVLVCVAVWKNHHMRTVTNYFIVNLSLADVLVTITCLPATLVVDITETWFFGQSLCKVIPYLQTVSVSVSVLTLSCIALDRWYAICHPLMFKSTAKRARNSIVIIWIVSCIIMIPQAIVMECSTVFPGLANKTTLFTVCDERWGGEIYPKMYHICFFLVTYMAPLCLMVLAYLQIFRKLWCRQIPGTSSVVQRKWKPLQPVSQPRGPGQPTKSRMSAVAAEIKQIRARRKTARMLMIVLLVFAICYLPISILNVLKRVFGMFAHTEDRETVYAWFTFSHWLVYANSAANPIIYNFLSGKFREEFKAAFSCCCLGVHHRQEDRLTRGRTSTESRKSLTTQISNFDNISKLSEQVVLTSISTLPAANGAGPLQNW

Rattus norvegicus [2] = assay: Neurotoxicity in CD rat assessed as impairment of motor coordination at 1 to 10 mg/kg, po by rotarod test in presence of 1 g/kg, ip ethanol; type: toxicity, organism-based; set-up: dose 1-10 mg/kg, route oral; conditions: in vivo
Rattus norvegicus [3] = assay: Neurotoxicity in CD rat assessed as impairment of motor coordination at 1 to 10 mg/kg, po by rotarod test; type: toxicity, organism-based; set-up: dose 1-10 mg/kg, route oral; conditions: in vivo

| SMILES | Ki [1] [nM] | Ki (Orexin receptor type 2) [nM] | Activity (Rattus norvegicus [2]) | Activity (Rattus norvegicus [3]) |
| --- | --- | --- | --- | --- |
| O=C(c1ccccc1-c1ccccc1)N1CCCC[C@H]1CCOc1ccc(F)cc1F | 0.158 | 0.794 |  |  |
| O=C(c1ccc(Cl)c(Cl)c1)N1CCCCC1CCOc1ccc(Cl)c(Cl)c1 (racemic) | 2510 | > 3160 |  |  |
| Cc1ccc(-c2nc3ccc(C)cn3c2CC(=O)N(C)C)cc1 [ZOLPIDEM] |  |  | Toxic | Toxic |
| CN(C[C@@H]1CCCCN1C(=O)c1ccccc1-c1ccccc1)C(=O)c1ccc(F)cc1 | 501 | 1260 |  |  |
| O=C(NC[C@@H]1CCCCN1C(=O)c1ccccc1-c1ccccc1)c1ccccc1 | 7.94 | 20 |  |  |
| N#Cc1cccc(C(=O)N2CCCCC2CCOc2ccc(Cl)c(Cl)c2)c1 (racemic) | 398 | 631 |  |  |
| COc1cccc(C(=O)N2CCCCC2CCOc2ccc(Cl)c(Cl)c2)c1 (racemic) | 126 | 501 |  |  |
| O=C(c1cccc2ccccc12)N1CCCC[C@H]1CCOc1ccc(F)cc1 | 6.31 | 126 |  |  |
